From paper PMC7069944, “Amino acid levels determine metabolism and CYP450 function of hepatocytes and hepatoma cell lines” (Nature Communications, 2020)
Values joined by “and” are separate entries in the source; they are usually repeats but may differ in a detail not shown here. Identical values can stand only once. Like-named read-outs stand apart in the source and are kept apart here.

Legend:
[1] = target: CYP3A4 (Homo sapiens, UniProt P08684)
Experimental: Comparative CYP450 biotransformation studies were performed to assess functionality across a number of gold standard primary hepatocyte models. Cryopreserved PHHs were obtained from a single donor (Lonza, Breda, The Netherlands) or pooled donors (Thermo Scientific, Merelbeke, Belgium). Upon thawing, cell suspensions (0.5 million cells/ml) were prepared in WE medium using 24-well plates (0.5 ml/well) on an orbital shaker and metabolization activity was assessed following a 15 min equilibration period. Human Hepatopac® plates were obtained from Ascendance Biotechnology (Ascendance Biotechnology, Boston USA) and cultures were maintained following instructions of the provider. Spheroid cultures were generated in-house as essentially described by Bell et al.[42].
Finally, the system was re-equilibrated at 60% (A)/40% (B) for an additional 0.7 min. Total run time was 3.8 min and 2 µl aliquots were injected onto the system for analysis.
All data collection, processing, and analysis was performed with Analyst® software (v1.6.2. SCIEX).

[2] = tested on: CYP3A4; assay: qRT-PCR CYP3A4 expression in HepG2; type: cell-based, human; conditions: single amino acid supplementation, relative to CTL (CTL values equal HepG2 D7 CTL)
Experimental: AA supplementation was accomplished through the addition of MEM Non-Essential Amino Acids Solution (100 × ) and MEM Amino Acids Solution (50 × ) (Thermo Scientific) to the culture medium. For AA1, AA2, and AA3 medium, we added respectively 2 ml, 8 ml, and 16 ml of non-essential AA solution and 1 ml, 4 ml, and 8 ml of essential AA solution per 100 ml of LDM, with or without glucose. Culture medium was then made PH neutral through the addition of NaOH. […] PSC derived HLCs were differentiated in LDM until D12. AA supplementation (AA1, AA2 and AA3) was performed from day 12 until day 20, 30 or 40 of differentiation. […] HepG2, HUH7.5, Hep3B, HHL5, and HEK293 cells were maintained in DMEM supplemented with 10% fetal bovine serum as shown in Supplementary Table 4. AA supplementation consisted of addition of 16 ml of non-essential AA mix and 8 ml of essential AA mix per 100 ml of medium and a further addition of 20 g/l of any of the single AAs. […] PHHs were maintained in a medium composition that was based on WE as detailed in ref. [67].
RNA extraction was performed using the GenElute Mammalian Total RNA Miniprep Kit (Sigma-Aldrich). Then, genomic DNA was eliminated using the On-Column DNase I Digestion kit (Sigma-Aldrich). Last, 1 µg of RNA was transcribed to cDNA using the Superscript III First-Strand synthesis (Invitrogen). Gene expression analysis was performed using the Platinum SYBR green qPCR supermix-UDG kit (Invitrogen) in a ViiA 7 Real-Time PCR instrument (Thermo Scientific, Waltham, MA). The sequences of all used qRT-PCR primers are listed in Supplementary Table 6. Of these, ribosomal protein L19 (RPL19) was used as a housekeeping gene for normalization.

[3] = tested on: cells cultured in AAGLY medium; assay: Single-exposure toxicity, summary value of this study (Boon et al); type: cell-based; conditions: Homo sapiens, single 24 h exposure
Experimental: To evaluate the ability to predict hepatotoxicity, we adapted the differentiation assays to a 384-well format. […] As a readout, we evaluated cell viability by resazurin conversion and correlated the results to therapeutic doses (Cmax values).
PSCs were differentiated in a 384-well format. […] As a negative control, 41 wells were left untreated. HepG2 were seeded at 40,000 cells per well. […] Cells were fixed with 4% PFA. […] Drugs were administrated after 8 h of attachment.

[4] = tested on: Spheroid of PHHs; set-up: method as in ref 3 (a number printed in a supplementary file, which may have a reference list of its own: not looked up in the article's list); conditions: 48h, ATP; cited from earlier work
[5] = tested on: Co-culture of endothelial cells and mouse hepatocytes; set-up: method as in ref 12 (a number printed in a supplementary file, which may have a reference list of its own: not looked up in the article's list); conditions: 36h, Cell count; cited from earlier work
[6] = tested on: PHH; set-up: method as in ref 15 (a number printed in a supplementary file, which may have a reference list of its own: not looked up in the article's list); conditions: 24h, ALT release; cited from earlier work
[7] = tested on: Cryopreserved PHH; set-up: method as in ref 16 (a number printed in a supplementary file, which may have a reference list of its own: not looked up in the article's list); conditions: 48h, ATP; cited from earlier work
[8] = tested on: Rat hepatocytes; set-up: method as in ref 17 (a number printed in a supplementary file, which may have a reference list of its own: not looked up in the article's list); conditions: 24h, MTT; cited from earlier work
[9] = tested on: Co-culture of PHHs and fibroblasts; set-up: method as in ref 4 (a number printed in a supplementary file, which may have a reference list of its own: not looked up in the article's list); conditions: 24h, ATP; cited from earlier work
[10] = tested on: HLCs; assay: Single-exposure toxicity, Hoechst/DRAQ7 live cell number, HLCs
Experimental: (§1) PSCs were differentiated in a 384-well format. Cells were treated with 14 different concentrations of compounds in 6 repeats. As a negative control, 41 wells were left untreated. HepG2 were seeded at 40,000 cells per well. For control conditions, HepG2 were exposed after 2 days of culture. […] Cells were fixed with 4% PFA. Imaging was done using an Operetta High-Content Imaging System (Perkin Elmer) and image analysis was performed using Harmony software (Perkin Elmer). […] As a positive control, 1 donor of PHHs was seeded at 10,000 cells per well. Drugs were administrated after 8 h of attachment.

[11] = tested on: HepG2; assay: Single-exposure toxicity, Hoechst/DRAQ7 live cell number, HepG2; conditions: for IC50: Homo sapiens
Experimental: as §1

[12] = tested on: PHHs; assay: Single-exposure toxicity, Hoechst/DRAQ7 live cell number, PHH 12 h; conditions: Homo sapiens, read-out: IC50 single exposure, Mean
Experimental: as §1

[13] = tested on: HC6X in the H9-ESC background; assay: Single-exposure toxicity, Hoechst/DRAQ7 live cell number, HC6X (H9-ESC); conditions: for IC50: Homo sapiens
Experimental: as §1

[14] = tested on: HC6X in the BJ1-iPSC background; assay: Single-exposure toxicity, Hoechst/DRAQ7 live cell number, HC6X (BJ1-iPSC); conditions: Homo sapiens
Experimental: as §1

[15] = tested on: CYP3A4; assay: CYP3A4-dependent BFC metabolization (fluorometric probe); type: in vitro ADME, human; conditions: for BFC metabolisation: Figure 2B, replicate values; for BFC metabolisation (pmol/h/1000000cells): Figure 1D
Experimental: Urea concentrations in the medium were analyzed after 24 h of culture using the QuantiChromTM Urea Assay Kit (BioAssay Systems DIUR-500) according to the manufacturer’s instructions. […] Metabolization was assessed for 1 h and 4 h incubation times. […] The albumin secretion rate was quantified using the human albumin ELISA quantification kit (Bethyl) according to instructions provided in the kit.

Chain of CYP3A4 (Homo sapiens, UniProt P08684) (P08684 whole entry): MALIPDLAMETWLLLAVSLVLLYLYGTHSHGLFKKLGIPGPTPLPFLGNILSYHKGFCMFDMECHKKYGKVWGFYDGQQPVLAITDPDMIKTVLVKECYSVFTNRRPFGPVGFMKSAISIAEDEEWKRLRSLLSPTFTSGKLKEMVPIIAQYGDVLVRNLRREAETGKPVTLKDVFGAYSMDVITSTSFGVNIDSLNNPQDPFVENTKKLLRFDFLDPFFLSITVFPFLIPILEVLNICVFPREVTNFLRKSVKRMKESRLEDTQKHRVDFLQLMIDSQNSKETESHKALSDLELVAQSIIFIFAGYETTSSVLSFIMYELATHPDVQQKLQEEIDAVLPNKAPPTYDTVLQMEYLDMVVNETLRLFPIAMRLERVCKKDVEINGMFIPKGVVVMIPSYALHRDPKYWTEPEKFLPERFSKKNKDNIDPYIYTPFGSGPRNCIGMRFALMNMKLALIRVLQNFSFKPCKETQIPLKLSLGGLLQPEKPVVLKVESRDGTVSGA

OCc1ncc2n1-c1ccc(Cl)cc1C(c1ccccc1F)=NC2 [1-OH midazolam]
1-OH midazolam formation (drug biotransformation cocktail) ([1]; HepG2 AAGLY D32): 5.9655 and 7.1394 and 9.0214
1-OH midazolam formation (drug biotransformation cocktail) ([1]; Hepatopac): 23.2481 and 33.0328 and 45.6546
1-OH midazolam formation (drug biotransformation cocktail) ([1]; PHH1): 5.4616 and 6.486

OCc1ncc2n1-c1ccc(Cl)cc1C(c1ccccc1F)=NC2 [10H-midazolam]
Stable 10H-midazolam metabolisation rate ([1]; HC6X AAGLY D40, D46): 371.429 ng/h/100 000 cells and 443.182 ng/h/100 000 cells and 446.97 ng/h/100 000 cells
Stable 10H-midazolam metabolisation rate ([1]; HC6X AAGLY D40, D48): 353.788 ng/h/100 000 cells and 537.879 ng/h/100 000 cells and 462.121 ng/h/100 000 cells
Stable 10H-midazolam metabolisation rate ([1]; HepG2 AAGLY D30, column head D40): 79.0741 ng/h/100 000 cells and 82.3438 ng/h/100 000 cells and 89.7887 ng/h/100 000 cells
Stable 10H-midazolam metabolisation rate ([1]; HepG2 AAGLY D30, column head D42): 185 ng/h/100 000 cells and 122.333 ng/h/100 000 cells and 146.406 ng/h/100 000 cells
Stable 10H-midazolam metabolisation rate ([1]; HepG2 AAGLY D30, column head D46): 133.654 ng/h/100 000 cells and 137.308 ng/h/100 000 cells and 133.846 ng/h/100 000 cells
Stable 10H-midazolam metabolisation rate ([1]; HepG2 AAGLY D30, column head D48): 133.333 ng/h/100 000 cells and 151.667 ng/h/100 000 cells and 136.296 ng/h/100 000 cells
Stable 10H-midazolam metabolisation rate ([1]; HepG2 AAGLY D30, column head D50): 105 ng/h/100 000 cells and 107.963 ng/h/100 000 cells and 103.75 ng/h/100 000 cells

C[C@H](N)C(=O)O [ALA, alanine]
Relative CYP3A4 expression [2]: 353.956 and 394.102 and 280.416

CC(=O)Nc1ccc(O)cc1 [APAP, acetaminophen]
IC50 [3]: 10 mM
IC50 [4]: 10 mM
IC50 [5]: 7 mM
IC50 [6]: ~10 mM
IC50 [7]: > 25 mM
IC50 [8]: 7.6 mM
IC50 [9]: 5.5 mM
IC50 single exposure, Mean ([10]; H9 HLC AAGLY D40): No toxicity
IC50 single exposure, Mean ([10]; H9 HLC LDM D40): No toxicity
toxicity after single administration ([10]; HLC cultured in basal medium): no toxicity
IC50 single exposure, Mean ([11]; HepG2 CTL D7): no toxicity
toxicity after single administration ([11]; HepG2 cultured in basal medium): no toxicity
IC50 ([11]; HepG2, read-out: IC50 single exposure, Mean, HepG2 AAGLY D30): 11.9 mM
IC50 ([11]; HepG2, read-out: IC50 single exposure, Mean, HepG2 AAGLY D40): 12 mM
IC50 [12]: 13.3 mM
toxicity after single administration ([13]; HC6X cultured in basal medium): no toxicity
IC50 ([13]; read-out: IC50 single exposure, Mean, H9 HC6X AAGLY D40): 12.1 mM
IC50 ([13]; read-out: IC50 single exposure, Mean, H9 HC6X AAGLY D50): 9.91 mM
IC50 ([14]; read-out: IC50 single exposure, Mean, BJ1 HC6X AAGLY D40): 12 mM
IC50 ([14]; read-out: IC50 single exposure, Mean, BJ1 HC6X AAGLY D50): 8.66 mM

O=c1cc(C(F)(F)F)c2ccc(OCc3ccccc3)cc2o1 [BFC, 7-benzyloxy-4-trifluoromethylcoumarin]
relative BFC metabolsiation (compared to PHH 0h) ([15]; HC3X AAGLY D20): 13.5398 and 11.6179 and 10.8677
relative BFC metabolsiation (compared to PHH 0h) ([15]; HC3X AAGLY D40): 91.111 and 105.714 and 91
relative BFC metabolsiation (compared to PHH 0h) ([15]; HC3X AAGLY D50): 143.333 and 136.667 and 101.19
BFC metabolisation ([15]; HC3X D20): 21.4494 pmol/h/1000000 cells and 25.0015 pmol/h/1000000 cells and 28.2425 pmol/h/1000000 cells
relative BFC metabolsiation (compared to PHH 0h) ([15]; HC3X LDM D20): 1.9009 and 2.216 and 2.503
relative BFC metabolsiation (compared to PHH 0h) ([15]; HLC AAGLY D20): 5.305 and 4.4 and 6.066
BFC metabolisation (pmol/h/1000000cells) ([15]; HLC D20): 11.7761 pmol/h/1000000cells and 11.0043 pmol/h/1000000cells and 15.6069 pmol/h/1000000cells
BFC metabolisation ([15]; HLC D20): 11.7761 pmol/h/1000000 cells and 11.0043 pmol/h/1000000 cells and 15.6069 pmol/h/1000000 cells
relative BFC metabolsiation (compared to PHH 0h) ([15]; HLC LDM D20): 1.044 and 0.9752 and 0.9879
relative BFC metabolsiation (compared to PHH 0h) ([15]; HLC LDM D40): 4.464 and 8.743 and 7.646
relative BFC metabolsiation (compared to PHH 0h) ([15]; PHH 0h): 101.025 and 82.5131 and 116.462
BFC metabolisation (pmol/h/1000000cells) ([15]; PHH 0h): 1139.95 pmol/h/1000000cells and 931.065 pmol/h/1000000cells and 1314.14 pmol/h/1000000cells
BFC metabolisation ([15]; PHH 0h): 1139.95 pmol/h/1000000 cells and 1031.07 pmol/h/1000000 cells and 1214.14 pmol/h/1000000 cells
relative BFC metabolsiation (compared to PHH 0h) ([15]; PHH 12h): 9.941 and 9.524
BFC metabolisation (pmol/h/1000000cells) ([15]; PHH 12h): 112.17 pmol/h/1000000cells and 107.467 pmol/h/1000000cells and 156.494 pmol/h/1000000cells
BFC metabolisation ([15]; PHH 12h): 112.17 pmol/h/1000000 cells and 107.467 pmol/h/1000000 cells and 156.494 pmol/h/1000000 cells
